Test results as given in US9695155B2, “Herbicidal substituted pyrimidinyloxy benzene compounds” (E. I. DU PONT DE NEMOURS AND COMPANY, priority 2013, dated 2017).

What was measured:
deadnettle = test: Test D preemergence; assay type: in vivo, Lamium amplexicaule; conditions: Lamium amplexicaule, pre-emergence, scale 0-100, read-out: Plant response rating, Deadnettle
Outline: (§1)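 After treatment, visual injury versus untreated plants, 0–100 scale, assessed at 7 to 21 days. Applications were made preemergence to silt loam-sown seed and postemergence to seedlings 2–18 cm high in potting medium.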

speedwell = test: Test D preemergence; assay type: in vivo, Veronica persica; conditions: Veronica persica, pre-emergence
Outline: as §1

spring wheat = test: Test D preemergence; assay type: in vivo, Triticum aestivum; conditions: Triticum aestivum, pre-emergence
Outline: as §1

winter wheat = test: Test D preemergence; assay type: in vivo, Triticum aestivum; conditions: Triticum aestivum, pre-emergence
Outline: as §1

wild oat = test: Test D preemergence; assay type: in vivo, Avena fatua; conditions: Avena fatua, pre-emergence, scale 0-100, read-out: Plant response rating, Oat, Wild
Outline: as §1

wild radish = test: Test D preemergence; assay type: in vivo, Raphanus raphanistrum; conditions: Raphanus raphanistrum, pre-emergence
Outline: as §1

bluegrass = test: Test D postemergence; assay type: in vivo, Poa annua; conditions: Poa annua, post-emergence, Postemergence, scale 0 to 100 (0 no effect, 100 complete control), read-out: Plant response rating, Bluegrass
Outline: as §1

field poppy = test: Test D postemergence; assay type: in vivo, Papaver rhoeas; conditions: Papaver rhoeas, post-emergence, scale 0 to 100 (0 no effect, 100 complete control), read-out: Plant response rating, Field Poppy
Outline: as §1

field violet = test: Test D postemergence; assay type: in vivo, Viola arvensis; conditions: Viola arvensis, post-emergence, scale 0 to 100 (0 no effect, 100 complete control), read-out: Plant response rating, Field Violet
Outline: as §1

soybean = test: Test E postemergence; assay type: in vivo, Glycine max; conditions: Glycine max, post-emergence
Outline: (§2)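 Test chemicals formulated in a non-phytotoxic solvent mixture containing a surfactant were applied preemergence to seeds in silt loam soil or postemergence to plants at the 1- to 4-leaf stage in potting mix. After 14 to 21 days in a greenhouse, injury was visually rated against controls on a 0-100 scale (0 = no effect, 100 = complete control).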

[1] = test system: waterhemp_RES2 (ALS & HPPD resistant common waterhemp); test: Test E postemergence; assay type: in vivo, Amaranthus rudis; conditions: Amaranthus tuberculatus, post-emergence, read-out: Plant response rating, Waterhemp_RES2
Outline: as §2

waterhemp = test: Test E postemergence; assay type: in vivo, Amaranthus rudis; conditions: Amaranthus tuberculatus, post-emergence, read-out: Plant response rating, Waterhemp
Outline: as §2

Brazilian crabgrass = test: Test E postemergence; assay type: in vivo, Digitaria horizontalis; conditions: Digitaria horizontalis, post-emergence, read-out: Plant response rating, Crabgrass, Brazil
Outline: as §2

[2] = Postemergence, 31 g ai/ha, scale 0 to 100
[3] = Postemergence, 62 g ai/ha, scale 0 to 100
[4] = Postemergence, 125 g ai/ha, scale 0 to 100
[5] = Postemergence, 250 g ai/ha, scale 0 to 100
[6] = postemergence, 16 g ai/ha, scale 0 to 100, 0 no effect, 100 complete control

N#Cc1cccc(Oc2ncc(Cl)cn2)c1-n1cc(C(F)(F)F)cn1 [Compound 58, 3-[(5-chloro-2-pyrimidinyl)oxy]-2-[4-(trifluoromethyl)-1H-pyrazol-1-yl]benzonitrile]
100%: pest or weed control at 31 g/ha (deadnettle; 31 g ai/ha) | pest or weed control at 62 g/ha (deadnettle; 62 g ai/ha) | pest or weed control at 125 g/ha (deadnettle; 125 g ai/ha) | pest or weed control at 250 g/ha (deadnettle; 250 g ai/ha) | pest or weed control at 31 g/ha (speedwell; 31 g ai/ha, scale 0 (no effect) to 100 (complete control), read-out: Plant response rating, Speedwell) | pest or weed control at 62 g/ha (speedwell; 62 g ai/ha, scale 0-100, read-out: Plant response rating, Speedwell) | pest or weed control at 125 g/ha (speedwell; 125 g ai/ha, scale 0-100, read-out: Plant response rating, Speedwell) | pest or weed control at 250 g/ha (speedwell; 250 g ai/ha, scale 0-100, read-out: Plant response rating, Speedwell) | plant injury at 250 g/ha (spring wheat; 250 g ai/ha, scale 0-100, read-out: Plant response rating, Wheat, Spring) | pest or weed control at 250 g/ha (wild oat; 250 g ai/ha) | pest or weed control at 31 g/ha (wild radish; 31 g ai/ha, scale 0 (no effect) to 100 (complete control), read-out: Plant response rating, Radish, Wild) | pest or weed control at 62 g/ha (wild radish; 62 g ai/ha, scale 0-100, read-out: Plant response rating, Radish, Wild) | pest or weed control at 125 g/ha (wild radish; 125 g ai/ha, scale 0-100, read-out: Plant response rating, Radish, Wild) | pest or weed control at 250 g/ha (wild radish; 250 g ai/ha, scale 0-100, read-out: Plant response rating, Radish, Wild) | pest or weed control at 125 g/ha (field poppy; 125 g ai/ha) | pest or weed control at 250 g/ha (field poppy; 250 g ai/ha) | pest or weed control at 31 g/ha (field violet; 31 g ai/ha) | pest or weed control at 62 g/ha (field violet; 62 g ai/ha) | pest or weed control at 125 g/ha (field violet; 125 g ai/ha) | pest or weed control at 250 g/ha (field violet; 250 g ai/ha) | plant response (crop injury) rating, soybean, 0-100 scale at 250 g/ha (soybean; [5]) | pest or weed control at 250 g/ha [1, 5] | pest or weed control at 125 g/ha (waterhemp; [4]) | pest or weed control at 250 g/ha (waterhemp; [5])
90%: plant injury at 250 g/ha (winter wheat; 250 g ai/ha, scale 0-100, read-out: Plant response rating, Wheat, Winter) | pest or weed control at 31 g/ha [1, 2] | pest or weed control at 62 g/ha [1, 3]
75%: plant injury at 125 g/ha (spring wheat; 125 g ai/ha, scale 0-100, read-out: Plant response rating, Wheat, Spring) | plant response (crop injury) rating, soybean, 0-100 scale at 16 g/ha (soybean; [6]) | pest or weed control at 16 g/ha (waterhemp; [6]) | pest or weed control at 250 g/ha (Brazilian crabgrass; [5])
55%: pest or weed control at 250 g/ha (bluegrass; 250 g ai/ha) | pest or weed control at 125 g/ha (Brazilian crabgrass; [4])
10%: pest or weed control at 16 g/ha (Brazilian crabgrass; [6])
85%: pest or weed control at 62 g/ha (field poppy; 62 g ai/ha) | pest or weed control at 31 g/ha (waterhemp; [2])
15%: plant injury at 62 g/ha (spring wheat; 62 g ai/ha, scale 0-100, read-out: Plant response rating, Wheat, Spring) | pest or weed control at 31 g/ha (wild oat; 31 g ai/ha)
20%: plant injury at 62 g/ha (winter wheat; 62 g ai/ha, scale 0-100, read-out: Plant response rating, Wheat, Winter) | pest or weed control at 31 g/ha (Brazilian crabgrass; [2])
0%: plant injury at 31 g/ha (spring wheat; 31 g ai/ha, scale 0 (no effect) to 100 (complete control), read-out: Plant response rating, Wheat, Spring) | plant injury at 31 g/ha (winter wheat; 31 g ai/ha, scale 0 (no effect) to 100 (complete control), read-out: Plant response rating, Wheat, Winter)
45%: pest or weed control at 125 g/ha (bluegrass; 125 g ai/ha)
80%: pest or weed control at 31 g/ha (field poppy; 31 g ai/ha) | pest or weed control at 16 g/ha [1, 6]
50%: plant injury at 125 g/ha (winter wheat; 125 g ai/ha, scale 0-100, read-out: Plant response rating, Wheat, Winter)
25%: pest or weed control at 62 g/ha (wild oat; 62 g ai/ha) | pest or weed control at 31 g/ha (bluegrass; 31 g ai/ha)
60%: pest or weed control at 125 g/ha (wild oat; 125 g ai/ha)
40%: pest or weed control at 62 g/ha (Brazilian crabgrass; [3])
95%: plant response (crop injury) rating, soybean, 0-100 scale at 31 g/ha (soybean; [2]) | plant response (crop injury) rating, soybean, 0-100 scale at 62 g/ha (soybean; [3]) | plant response (crop injury) rating, soybean, 0-100 scale at 125 g/ha (soybean; [4]) | pest or weed control at 125 g/ha [1, 4] | pest or weed control at 62 g/ha (waterhemp; [3])
35%: pest or weed control at 62 g/ha (bluegrass; 62 g ai/ha)
